Target: T1, Human coagulation factor (F)XI (Homo sapiens, UniProt P03951)
T1 construct: purchased Haematologic Technologies Inc. (FXI); Enzyme Research Laboratories (FXIIa) HCXI-150 (FXI); HFXIIa (FXIIa)
Assay: Inhibition of FXIIa mediated activation of FXI (activation of human Factor XI to XIa by human Factor α-XIIa)
Format: biochemical
Settings: human FXI pre-incubated with compound 30 min at 22° C., activation by human FXIIa 60 min, z-GPR-AFC substrate fluorescence, 4 parameter logistic fit; read-out: Inhibition of FXIIa meditated activation of FXI
Protocol: Inhibition of FXIIa Mediated Activation of FXI
Activation of Human Factor XI to XIa by Human Factor α-XIIa
The assay was performed in 50 mM HEPES, 150 mM NaCl, 5 mM CaCl2, 0.1% PEG-8000, pH 7.4 buffer in black, flat-bottom, polystyrene microplates (Corning, Cat #3573). Serial dilutions (10-point, 3.333-fold) of the test compounds delivered as 10 mM DMSO stocks were prepared in the Labcyte Echo-qualified PP 384 well microplates (Labcyte, Cat #P-05525). Human coagulation factor (F)XI (Haematologic Technologies Inc., Cat #HCXI-150, concentration 46 nM, 19.5 uL) was pre-incubated with 0.5 uL of the test compounds for 30 min at 22° C. The activation was initiated by addition of 10 uL of human coagulation factor (F)XIIa (Enzyme Research Laboratories, Cat #HFXIIa, concentration 30 nM) and the reaction proceeded for 60 min at 22° C., after which it was quenched by addition of a selective inhibitor of FXIIa (Compound 54 in International Patent Publication WO2018093695) concentration 600 uM in DMSO, 1 uL). 10 min after the quench, 29 uL of z-GPR-AFC substrate (Sigma, Cat #C0980-10 MG, concentration 200 uM) was added into each well and the detection reaction proceeded for 60 min at 22° C. Fluorescence at 405/510 nm was measured in end-point mode using an Envision plate-reader (Perkin Elmer). IDBS Activity Base XE (ABase) analysis using 4 parameter logistic fit was performed to determine Minimum, Maximum, EC50, and Slope Factor for each compound.

T1 sequence (P03951 19-625): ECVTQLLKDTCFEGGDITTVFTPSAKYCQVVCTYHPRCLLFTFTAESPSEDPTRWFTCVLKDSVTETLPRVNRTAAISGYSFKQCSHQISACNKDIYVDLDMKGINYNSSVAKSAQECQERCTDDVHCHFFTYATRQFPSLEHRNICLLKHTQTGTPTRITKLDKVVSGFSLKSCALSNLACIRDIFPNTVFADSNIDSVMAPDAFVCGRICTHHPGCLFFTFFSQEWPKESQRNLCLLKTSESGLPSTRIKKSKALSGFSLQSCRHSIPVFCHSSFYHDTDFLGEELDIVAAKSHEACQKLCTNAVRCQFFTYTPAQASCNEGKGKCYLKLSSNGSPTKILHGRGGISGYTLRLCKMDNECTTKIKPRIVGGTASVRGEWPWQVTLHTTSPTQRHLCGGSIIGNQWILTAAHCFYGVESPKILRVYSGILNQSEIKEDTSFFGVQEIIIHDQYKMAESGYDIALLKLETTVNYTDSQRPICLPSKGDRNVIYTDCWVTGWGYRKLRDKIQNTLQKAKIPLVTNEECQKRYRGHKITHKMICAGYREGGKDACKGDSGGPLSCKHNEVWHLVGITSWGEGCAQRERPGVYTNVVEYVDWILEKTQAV

Structure (SMILES)	EC50 [nM]
N#CC1(c2ccccc2)CCN(C(=O)c2cc(C(=O)N3CCCCC3)c3cc(OCc4cn5ccccc5n4)ccc3n2)CC1 [Example 47, 1-(6-(imidazo[1,2-a]pyridin-2-ylmethoxy)-4-(piperidine-1-carbonyl)quinoline-2-carbonyl)-4-phenylpiperi-dine-4-carbonitrile]	13.8
N#CC1(c2ccccc2)CCN(C(=O)c2cc(C(=O)N3CCCCC3)c3cc(OCc4ccccn4)ccc3n2)CC1 [Example 48, 4-phenyl-1-(4-(piperidine-1-carbonyl)-6-(pyridin-2-yl-methoxy)quinoline-2-carbon-yl)piperidine-4-carbonitrile]	44.9
N#CC1(c2ccccc2)CCN(C(=O)c2cc(C(=O)N3CCCCC3)c3cc(OCc4nc5ccccc5s4)ccc3n2)CC1 [Example 49, 1-(6-(benzo[d]thiazol-2-yl-methoxy)-4-(piperidine-1-carbonyl)quinoline-2-carbonyl)-4-phenylpiperi-dine-4-carbonitrile]	15
Cn1c(COc2ccc3nc(C(=O)N4CCC(C#N)(c5ccccc5)CC4)cc(C(=O)N4CCCCC4)c3c2)nc2ccccc21 [Example 50, 1-(6-((1-methyl-1H-benzo[d]-imidazol-2-yl)methoxy)-4-(piperidine-1-carbonyl)quin-oline-2-carbonyl)-4-phenyl-piperidine-4-carbonitrile]	33.1
N#CC1(c2ccccc2)CCN(C(=O)c2cc(C(=O)N3CCCCC3)c3cc(OCc4noc5ccccc45)ccc3n2)CC1 [Example 51, 1-(6-(benzo[d]isoxazol-3-yl-methoxy)-4-(piperidine-1-carbonyl)quinoline-2-carbon-yl)-4-phenylpiperidine-4-carbonitrile]	40.5
O=C(c1cc(C(=O)N2CCC(F)CC2)c2cc(OCc3nc4ccccc4s3)ccc2n1)N1CCC(n2cccn2)CC1 [Example 52, (4-(1H-pyrazol-1-yl)piperidin-1-yl)(6-(benzo[d]thiazol-2-ylmethoxy)-4-(4-fluoropiperidine-1-carbonyl)quinolin-2-yl)methanone]	28.3
O=C(c1cc(C(=O)N2CCCC(F)(F)C2)c2cc(OCc3nc4ccccc4s3)ccc2n1)N1CCC(n2cccn2)CC1 [Example 53, (4-(1H-pyrazol-1-yl)piperidin-1-yl)(6-(benzo[d]thiazol-2-ylmethoxy)-4-(3,3-difluoro-piperidine-1-carbonyl)quin-olin-2-yl)methanone]	62.6
CN(C(=O)c1cc(C(=O)N2CCC(n3cccn3)CC2)nc2ccc(OCc3nc4ccccc4s3)cc12)C1CC1 [Example 54, 2-(4-(1H-pyrazol-1-yl)piperi-dine-1-carbonyl)-6-(benzo[d]-thiazol-2-ylmethoxy)-N-cyclo-propyl-N-methylquinoline-4-carboxamide]	71.5
CN(C(=O)c1cc(C(=O)N2CCC(n3cccn3)CC2)nc2ccc(OCc3nc4ccccc4s3)cc12)C1CCC1 [Example 55, 2-(4-(1H-pyrazol-1-yl)piperi-dine-1-carbonyl)-6-(benzo[d]-thiazol-2-ylmethoxy)-N-cyclo-butyl-N-methylquinoline-4-carboxamide]	366
N#CC1(c2ccccn2)CCN(C(=O)c2cc(C(=O)N3CCCCC3)c3cc(OCc4nc5ccccc5s4)ccc3n2)CC1 [Example 57, 1-(6-(benzo[d]thiazol-2-yl-methoxy)-4-(piperidine-1-carbonyl)quinoline-2-car-bonyl)-4-(pyridin-2-yl)-piperidine-4-carbonitrile]	21.8

Results, then the molecule that gave them:

EC50 [nM]	Structure (SMILES)
33.7	N#CC1(n2cccn2)CCN(C(=O)c2cc(C(=O)N3CCCCC3)c3cc(OCc4nc5ccccc5s4)ccc3n2)CC1 [Example 58, 1-(6-(benzo[d]thiazol-2-ylmethoxy)-4-(piperidine-1-carbonyl)quinoline-2-carbonyl)-4-(1H-pyrazol-1-yl)piperidine-4-carbonitrile]
60	NC(=O)C1(c2ccccc2)CCN(C(=O)c2cc(C(=O)N3CCCCC3)c3cc(OCc4nc5ccccc5s4)ccc3n2)CC1 [Example 59, 1-(6-(benzo[d]thiazol-2-yl-methoxy)-4-(piperidine-1-carbonyl)quinoline-2-car-bonyl)-4-phenylpiperidine-4-carboxamide]
37.7	N#CC1(c2ccccc2)CCN(C(=O)c2cc(C(=O)N3CCCCC3)c3cc(OCc4nc5ccccc5s4)ccc3n2)CC1 [Example 60, 1-(6-(benzo[d]thiazol-2-yl-methoxy)-4-(piperidine-1-carbonyl)quinoline-2-car-onyl)-4-phenylpiperidine-4-carbonitrile]
131	C[C@]1(O)CCN(C(=O)c2cc(C(=O)N3CCCCC3)c3cc(OCc4nc5ccccc5s4)ccc3n2)C1 [Example 61, (S)(6-(benzo[d]thiazol-2-ylmethoxy)-2-(3-hydroxy-3-methylpyrrolidine-1-carbonyl)quinolin-4-yl)-(piperidin-1-yl)methanone]
19.1	O=C(c1cc(C(=O)N2CCCCC2)c2cc(OCc3nc4ccccc4s3)ccc2n1)N1CCC2(CC1)CC2(F)F [Example 62, (6-(benzo[d]thiazol-2-yl-methoxy)-2-(1,1-difluoro-6-azaspiro[2.5]octane-6-carbonyl)quinolin-4-yl)-(piperidin-1-yl)methanone]
31	O=C(c1cc(C(=O)N2CCCCC2)c2cc(OCc3nc4ccccc4s3)ccc2n1)N1CCC(c2cc[nH]n2)CC1 [Example 63, (4-(1H-pyrazol-3-yl)piperi-din-1-yl)(6-(benzo[d]-thiazol-2-ylmethoxy)-4-(piperidine-1-carbonyl)-quinolin-2-yl)methanone]
42.1	O=C(c1cc(C(=O)N2CCCCC2)c2cc(OCc3nc4ccccc4s3)ccc2n1)N1CCC(n2ccnn2)CC1 [Example 64, (4-(1H-1,2,3-triazol-1-yl)-piperidin-1-yl)(6-(benzo-[d]thiazol-2-ylmethoxy)-4-(piperidine-1-carbonyl)-quinolin-2-yl)methanone]
19.1	O=C(c1cc(C(=O)N2CCCCC2)c2cc(OCc3nc4ccccc4s3)ccc2n1)N1CCN(CC(F)(F)F)CC1 [Example 65, (6-(benzo[d]thiazol-2-yl-methoxy)-2-(4-(2,2,2-trifluoroethyl)piperazine-1-carbonyl)quinolin-4-yl)-(piperidin-1-yl)methanone]
16.5	CC(N1CCN(C(=O)c2cc(C(=O)N3CCCCC3)c3cc(OCc4nc5ccccc5s4)ccc3n2)CC1)C(F)(F)F (centres unmarked) [Example 66, (6-(benzo[d]thiazol-2-yl-methoxy)-2-(4-(1,1,1-trifluoropropan-2-yl)-piperazine-1-carbonyl)-quinolin-4-yl)(piperidin-1-yl)methanone]
34.7	O=C(c1cc(C(=O)N2CCCCC2)c2cc(OCc3nc4ccccc4s3)ccc2n1)N1CCN(CC(F)F)CC1 [Example 67, (6-(benzo[d]thiazol-2-yl-methoxy)-2-(4-(2,2-difluoroethyl)piperazine-1-carbonyl)quinolin-4-yl)-(piperidin-1-yl)methanone]
19.1	CS(=O)(=O)N1CCN(C(=O)c2cc(C(=O)N3CCCCC3)c3cc(OCc4nc5ccccc5s4)ccc3n2)CC1 [Example 68, (6-(benzo[d]thiazol-2-yl-methoxy)-2-(4-(methyl-sulfonyl)piperazine-1-carbonyl)quinolin-4-yl)-(piperidin-1-yl)methanone]
45.9	O=C(c1cc(C(=O)N2CCCCC2)c2cc(OCc3nc4ccccc4s3)ccc2n1)N1CCC(n2cc(F)cn2)CC1 [Example 69, (6-(benzo[d]thiazol-2-yl-methoxy)-2-(4-(4-fluoro-1H-pyrazol-1-yl)piperi-dine-1-carbonyl)quinolin-4-yl)(piperidin-1-yl) methanone]
40.2	O=C(c1cc(C(=O)N2CCCCC2)c2cc(OCc3nc4ccccc4s3)ccc2n1)N1CC[C@H]2OCCC[C@@H]2C1 [Example 70]
48.6	O=C(c1cc(C(=O)N2CCCCC2)c2cc(OCc3nc4ccccc4s3)ccc2n1)N1CCCN(Cc2nccs2)CC1 [Example 71, 4-(6-(benzo[d]thiazol-2-yl-methoxy)-4-(piperidine-1-carbonyl)quinoline-2-car-bonyl)-1-(thiazol-2-yl-methyl)-1,4-diazepan-1-ium 2,2,2-trifluoroacetate]
38.5	CC(=O)NC1CC2(CCN(C(=O)c3cc(C(=O)N4CCCCC4)c4cc(OCc5nc6ccccc6s5)ccc4n3)CC2)C1 [Example 73, N-(7-(6-(benzo[d]thiazol-2-ylmethoxy)-4-(piperi-dine-1-carbonyl)quinoline-2-carbonyl)-7-azaspiro-[3.5]nonan-2-yl)acetamide]
32.6	O=C(c1cc(C(=O)N2CCCCC2)c2cc(OCc3nc4ccccc4s3)ccc2n1)N1CCC(c2ncc[nH]2)CC1 [Example 74, (4-(1H-imidazol-2-yl)-piperidin-1-yl)(6-(benzo-[d]thiazol-2-ylmethoxy)-4-(piperidine-carbonyl)-quinolin-2-yl)methanone]

Reference: patent publication US12304899B2, “Factor XI activation inhibitors” (Merck Sharp & Dohme LLC, priority 2019, dated 2025)
